Key:
[1] = tested on: control sera (pooled serum of ten healthy LUMC hospital workers; commercial negative donor pooled serum from the Dutch bloodbank); type: binding, human; set-up: Binding of Control serum LUMC to linear peptides / Binding of Control serum Blood-bank to linear peptides / Binding of Control serum LUMC to looped peptides / Binding of Control Serum Blood-Bank to Looped peptides / Binding of Control serum LUMC to linear peptides of the protein M of SARS-CoV Urbani / Binding of Control serum Blood-bank to linear peptides of the protein M of SARS-CoV Urbani / Binding of Control serum LUMC to looped peptides of the protein M of SARS-CoV Urbani / Binding of Control Serum Blood-Bank to Looped peptides of the protein M of SARS-CoV Urbani: unit not given here
[2] = tested on: antibodies in sera from SARS patients (sera 1a, 1b, 2, 6, 37, 62, London, SARS-yellow, SARS-green); type: binding, human; set-up: Binding of serum 6 to linear peptides of protein X1 of SARS-CoV Urbani / Binding of serum 37 to linear peptides of protein X1 of SARS-CoV Urbani / Binding of serum 6 to looped/cyclic peptide (PEPSCAN-ELISA) / Binding of serum 37 to looped/cyclic peptide (PEPSCAN-ELISA) / Binding of serum 37 to looped/cyclic peptides of protein X1 of SARS-CoV Urbani / Binding of serum 6 to linear peptides of protein X2 / Binding of serum 37 to linear peptides of protein X2 / Binding of serum 37 to looped/cyclic peptides of protein X2 of SARS-CoV Urbani / Binding of serum 6 to linear peptides of protein M of SARS-CoV Urbani / Binding of serum 37 to linear peptides of protein M of SARS-CoV Urbani / Binding of serum 6 to looped/cyclic peptides of protein M of SARS-CoV Urbani / Binding of serum 37 to looped/cyclic peptides of protein M of SARS-CoV Urbani / Binding of serum 6 to linear peptides of protein X3 of SARS-CoV Urbani / Binding of serum 37 to linear peptides of protein X3 of SARS-CoV Urbani / Binding of serum 37 to looped/cyclic peptides of protein X3 of SARS-CoV Urbani / Binding of serum 6 to linear peptides of protein X4 of SARS-CoV Urbani / Binding of serum 37 to linear peptides of protein X4 of SARS-CoV Urbani / Binding of serum 37 to looped/cyclic peptides of protein X4 of SARS-CoV Urbani / Binding of serum 6 to linear peptides of protein X5 of SARS-CoV Urbani / Binding of serum 37 to linear peptides of protein X5 of SARS-CoV Urbani / Binding of serum 37 to looped/cyclic peptides of protein X5 of SARS-CoV Urbani / Binding of serum 6 to linear peptides of protein N of SARS-CoV Urbani / Binding of serum 37 to linear peptides of protein N of SARS-CoV Urbani / Binding of serum 6 to linear peptide (PEPSCAN-ELISA) / Binding of serum 1a to looped/cyclic peptides of protein N of SARS-CoV Urbani / Binding of serum 1b to looped/cyclic peptides of protein N of SARS-CoV Urbani / Binding of serum 2 to looped/cyclic peptides of protein N of SARS-CoV Urbani / Binding of serum 6 to looped/cyclic peptides of protein N of SARS-CoV Urbani / Binding of serum 37 to looped/cyclic peptides of protein N of SARS-CoV Urbani / Binding of serum 62 to looped/cyclic peptides of protein N of SARS-CoV Urbani / Binding of serum London to looped/cyclic peptides of protein N of SARS-CoV Urbani / Binding of serum SARS-green to looped/cyclic peptides of protein N of SARS-CoV Urbani: unit not given here
[3] = tested on: rabbit serum obtained by immunizing a rabbit with the SARS-CoV strain Frankfurt 1; type: binding; set-up: Binding of a rabbit serum to linear peptides / Binding of a rabbit serum to looped peptides / Rabbit serum linear peptides / Rabbit serum looped peptides / Binding of a rabbit serum to linear peptides of protein N of SARS-CoV Urbani (Rabbit serum linear peptides) / Binding of a rabbit serum to looped/cyclic peptides of protein N of SARS-CoV Urbani (Rabbit serum looped peptides): unit not given here

GWLVIGVAFLAVFQS
0.4: Binding of serum 6 to looped/cyclic peptide (PEPSCAN-ELISA) [2] | Binding of serum SARS-green to looped/cyclic peptide (PEPSCAN-ELISA) [2]
0.5: Binding of Control serum Blood-bank to linear peptides [1] | Binding of serum 1b to looped/cyclic peptide (PEPSCAN-ELISA) [2] | Binding of serum 2 to linear peptides of protein X1 of SARS-CoV Urbani [2] | Binding of serum 6 to linear peptides of protein X1 of SARS-CoV Urbani [2] | Binding of serum SARS-yellow to linear peptides of protein X1 of SARS-CoV Urbani [2]
0.2: Binding of serum SARS-green to linear peptides of protein X1 of SARS-CoV Urbani [2]
0.3: Binding of serum London to linear peptides of protein X1 of SARS-CoV Urbani [2] | Binding of serum London to looped/cyclic peptide (PEPSCAN-ELISA) [2]
0.7: Binding of Control serum LUMC to looped peptides [1] | Binding of serum 1a to linear peptides of protein X1 of SARS-CoV Urbani [2] | Binding of serum 1a to looped/cyclic peptide (PEPSCAN-ELISA) [2] | Binding of serum 2 to looped/cyclic peptide (PEPSCAN-ELISA) [2]
0.8: Binding of Control Serum Blood-Bank to Looped peptides [1] | Binding of serum 62 to looped/cyclic peptide (PEPSCAN-ELISA) [2] | Binding of a rabbit serum to linear peptides [3]
0.6: Binding of Control serum LUMC to linear peptides [1] | Binding of serum 1b to linear peptides of protein X1 of SARS-CoV Urbani [2] | Binding of serum 37 to linear peptides of protein X1 of SARS-CoV Urbani [2] | Binding of serum 37 to looped/cyclic peptide (PEPSCAN-ELISA) [2] | Binding of serum 62 to linear peptides of protein X1 of SARS-CoV Urbani [2] | Binding of serum SARS-yellow to looped/cyclic peptide (PEPSCAN-ELISA) [2] | Binding of a rabbit serum to looped peptides [3]

RINWVTGGIAIAMAC
0.3: Binding of serum SARS-green to looped/cyclic peptides of protein M of SARS-CoV Urbani [2] | Binding of serum SARS-yellow to linear peptides of protein M of SARS-CoV Urbani [2]
0.6: Binding of serum 2 to linear peptides of protein M of SARS-CoV Urbani [2] | Binding of serum 2 to looped/cyclic peptides of protein M of SARS-CoV Urbani [2] | Binding of serum SARS-green to linear peptides of protein M of SARS-CoV Urbani [2]
0.4: Binding of serum 6 to looped/cyclic peptides of protein M of SARS-CoV Urbani [2] | Rabbit serum looped peptides [3]
0.8: Binding of Control serum Blood-bank to linear peptides of the protein M of SARS-CoV Urbani [1] | Binding of Control serum LUMC to linear peptides of the protein M of SARS-CoV Urbani [1] | Binding of Control serum LUMC to looped peptides of the protein M of SARS-CoV Urbani [1] | Binding of serum 6 to linear peptides of protein M of SARS-CoV Urbani [2]
0.5: Binding of Control Serum Blood-Bank to Looped peptides of the protein M of SARS-CoV Urbani [1] | Binding of serum 37 to linear peptides of protein M of SARS-CoV Urbani [2] | Binding of serum 62 to linear peptides of protein M of SARS-CoV Urbani [2] | Binding of serum London to linear peptides of protein M of SARS-CoV Urbani [2]
0.2: Binding of serum 1b to looped/cyclic peptides of protein M of SARS-CoV Urbani [2] | Binding of serum London to looped/cyclic peptides of protein M of SARS-CoV Urbani [2] | Rabbit serum linear peptides [3]
0.7: Binding of serum 1a to linear peptides of protein M of SARS-CoV Urbani [2] | Binding of serum 1a to looped/cyclic peptides of protein M of SARS-CoV Urbani [2] | Binding of serum 1b to linear peptides of protein M of SARS-CoV Urbani [2] | Binding of serum 37 to looped/cyclic peptides of protein M of SARS-CoV Urbani [2] | Binding of serum 62 to looped/cyclic peptides of protein M of SARS-CoV Urbani [2] | Binding of serum SARS-yellow to looped/cyclic peptides of protein M of SARS-CoV Urbani [2]

SLLKTHRMCKYTQST
0.1: Binding of serum 2 to looped/cyclic peptides of protein X2 of SARS-CoV Urbani [2] | Binding of serum SARS-green to looped/cyclic peptides of protein X2 of SARS-CoV Urbani [2]
0.3: Binding of serum 1a to looped/cyclic peptides of protein X2 of SARS-CoV Urbani [2] | Binding of serum 37 to looped/cyclic peptides of protein X2 of SARS-CoV Urbani [2] | Binding of a rabbit serum to linear peptides [3] | Binding of a rabbit serum to looped peptides [3]
0.2: Binding of serum 1b to looped/cyclic peptides of protein X2 of SARS-CoV Urbani [2] | Binding of serum 6 to looped/cyclic peptides of protein X2 of SARS-CoV Urbani [2] | Binding of serum London to looped/cyclic peptides of protein X2 of SARS-CoV Urbani [2] | Binding of serum SARS-yellow to looped/cyclic peptides of protein X2 of SARS-CoV Urbani [2]
0.8: Binding of Control serum LUMC to linear peptides [1] | Binding of serum 1a to linear peptides of protein X2 [2]
0.7: Binding of serum 62 to linear peptides of protein X2 [2] | Binding of serum SARS-green to linear peptides of protein X2 [2] | Binding of serum SARS-yellow to linear peptides of protein X2 [2]
0.6: Binding of serum 1b to linear peptides of protein X2 [2] | Binding of serum 2 to linear peptides of protein X2 [2] | Binding of serum 6 to linear peptides of protein X2 [2] | Binding of serum 37 to linear peptides of protein X2 [2] | Binding of serum London to linear peptides of protein X2 [2]
0.9: Binding of Control serum Blood-bank to linear peptides [1]
0.4: Binding of Control Serum Blood-Bank to Looped peptides [1] | Binding of Control serum LUMC to looped peptides [1] | Binding of serum 62 to looped/cyclic peptides of protein X2 of SARS-CoV Urbani [2]
